Test results published in US5214191A, “Oxidant sensitive and insensitive aromatic esters as inhibitors of human neutrophil elastase” (Cortech, Inc., priority 1990, dated 1993).
Converted amounts (≈) assume the structure as drawn. Like-named read-outs stand apart in the source and are kept apart here.

How the values were obtained:
[1] = target: T1, human neutrophil elastase (HNE) (Homo sapiens, UniProt P08246); test: Potency (I50 determination) against human neutrophil elastase, N-methoxysuccinyl-ala-ala-pro-val-pNA substrate; assay type: biochemical; conditions: for potency relative to Compound A: in words, versus Compound A (pivaloyl group)
T1 sequence (P08246 30-267): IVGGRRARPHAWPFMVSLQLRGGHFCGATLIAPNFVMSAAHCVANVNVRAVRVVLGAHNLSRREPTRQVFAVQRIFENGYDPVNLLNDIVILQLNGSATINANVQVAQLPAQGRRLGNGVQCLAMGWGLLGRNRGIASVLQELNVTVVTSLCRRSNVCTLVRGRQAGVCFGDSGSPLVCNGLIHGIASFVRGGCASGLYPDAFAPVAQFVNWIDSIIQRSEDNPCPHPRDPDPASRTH
Protocol: Potency (I50 Determination)
A) 0.075M sodium phosphate, 20% dimethyl sulfoxide (DMSO), pH 7.7=substrateand inhibitor buffer
B) 0.075M sodium phosphate no DMSO, pH 7.7=inhibitor buffer
C) 10 mM human neutrophil elastase (HNE) substrate =N-methoxysuccinyl-ala-ala-pro-val-pNA in DMSO
D) 0.01M sodium acetate, 20% DMSO, pH 5.5=enzyme buffer (dilution)
E) 0.01M sodium acetate, pH 5.5=enzyme buffer (storage)
F) HNE (1 mg) dissolved in 1 mL of reagent E for storage at -20° C.
Make a 10 mM stock of the inhibitor in DMSO. Dilute an aliquot (10 μL) up to 1.0 mL in reagent A (100 μM). Serially dilute 100 μL of the 100 μM stock to 10.0, 1.0, 0.1, 0.01 μM in reagent A. Apply 100 μL of the diluted material to the wells of a 96-well plate. Dilute an aliquot of reagent F 1:150 in reagent D, apply 50 μL aliquots to the indicated wells and incubate for 7 minutes at room temperature.
The HNE substrate solution is made by taking 100 μL of reagent C into 500 μL of reagent A and 400 μL of reagent B. After the 7 minutes of incubation, the substrate (50 μL) is applied to each well. The HNE catalyzed reaction is then monitored spectrophotometrically at 405 nm using an ELISA plate reader machine (UVMAX, Molecular Devices) which processes the raw data with an on-board kinetics program. The enzyme activity is plotted against different inhibitor concentrations and the I50 value is determined by using a curve fitting software program. Once the "screening" I50 has been approximated, a more precise I50 value can be obtained by examination of inhibitor concentrations around this value.

[2] = target: porcine pancreatic elastase (PPE) (Sus scrofa, UniProt P00772); test: Specificity determination, porcine pancreatic elastase, N-succinyl-ala-ala-ala-pNA substrate; assay type: biochemical; conditions: ratio of I50's (PPE/HNE)
porcine pancreatic elastase (PPE), sequence (P00772 27-266): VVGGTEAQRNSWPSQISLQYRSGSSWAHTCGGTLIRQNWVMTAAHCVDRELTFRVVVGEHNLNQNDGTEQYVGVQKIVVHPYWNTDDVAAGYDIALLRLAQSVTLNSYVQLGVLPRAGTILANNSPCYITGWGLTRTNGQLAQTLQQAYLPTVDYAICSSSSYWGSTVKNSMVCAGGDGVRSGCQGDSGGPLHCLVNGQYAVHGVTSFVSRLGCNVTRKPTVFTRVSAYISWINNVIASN
Excerpt: (§1) Representative compounds according to the invention have been compared with a compound (Compound A) typifying the compounds described in U.S. Pat. […] The comparisons were directed towards potency (represented by the I50 's for human neutrophil elastase (HNE), porcine pancreatic elastase (PPE) and alpha-chymotrypsin (α-CH)), specificity (represented by the ratios of the I50 's (PPE/HNE and α-CH/HNE)) and the ability to inhibit the digestion of extracellular matrix by activated intact human neutrophils (expressed as a fraction of control) of the compounds listed. The following results were obtained (TABLE IV): Specificity Determination Reagents: 1) Porcine Pancreatic Elastase (PPE) 1 mg/mL in 0.01M sodium acetate, pH 5.5. An aliquot of this stock solution is diluted 1:20 in 0.01M sodium acetate, 20% DMSO, 10 mM CaCl2, pH 5.5. 3) PPE substrate: N-succinyl-[…] 20 mM stock in DMSO. Inhibitor, substrate buffer: 0.1M tris-HCl, 0.01M CaCl2, 0.005% triton X-100, 20% DMSO, pH 7.7.

[3] = target: alpha-chymotrypsin (α-CH) (Bos taurus, UniProt P00766); test: Specificity determination, alpha-chymotrypsin, N-succinyl-ala-ala-pro-leu-pNA substrate; assay type: biochemical; conditions: ratio of I50's (α-CH/HNE)
Excerpt: as §1, with “2) α-Chymotrypsin (α-CH)” for “1) Porcine Pancreatic Elastase (PPE)”, “1:85” for “1:20”, “5.5, 0.005% triton X-100 detergent. 4) α-CH” for “5.5. 3) PPE”

[4] = PBS solubility; assay type: physicochemical; conditions: aqueous buffer
[5] = Table IV, human neutrophil elastase, read-out: HNE I50
[6] = Table III, series with varied R4, read-out: I50

Structure (SMILES) | IC50 [1, 5] [µM] | PPE (I50)/HNE (I50) [2] | α-Chymotrypsin (I50)/HNE(I50) [3] | IC50 [1, 6] [µM] | solubility [4] [µg/mL] | potency relative to Compound A [1]
CCC(C(=O)Oc1ccc(S(C)(=O)=O)cc1)c1ccc(OC)cc1 (stereo not drawn) [Compound 37, 4-Methylsulfonylphenyl 2-(4'-Methoxyphenyl)butyrate] | 0.031 | 38.6 | 106.2 |  |  | improve potency relative to a compound bearing a simple pivaloyl group
CCC(C(=O)Oc1ccc(S(C)(=O)=O)cc1)c1ccc2cc(OC)ccc2c1 (stereo not drawn) [Compound 384] | 0.055 | 29.1 | 131.8 |  |  | improve potency relative to a compound bearing a simple pivaloyl group
CCC(C(=O)Oc1ccc(SCC(C)(C)C(=O)O)cc1)c1ccccc1 (stereo not drawn) [SCH2 C(CH3)2 CO2 H] |  |  |  | 0.892 | ≥ 2000 | 
CC(C)(C)C(=O)Oc1ccc(S(C)(=O)=O)cc1 [Compound A, reference compound] | 0.129 | 18.84 | 146.10 |  |  | 
CCC(C(=O)Oc1ccc(S(=O)(=O)CC(C)(C)C(=O)O)cc1)c1ccccc1 (stereo not drawn) [S(O2)CH2 C(CH3)2 CO2 H] |  |  |  | 0.141 | ≥ 2000 | 

Continued, in another order:

IC50 [1, 5] [µM] | PPE (I50)/HNE (I50) [2] | α-Chymotrypsin (I50)/HNE(I50) [3] | IC50 [1, 6] [µM] | solubility [4] [µg/mL] | Structure (SMILES) | potency relative to Compound A [1]
0.025 | 129.6 | 176.0 |  |  | CCC(C(=O)Oc1ccc(S(C)(=O)=O)cc1)c1ccccc1 (stereo not drawn) [Compound 3] | improve potency relative to a compound bearing a simple pivaloyl group
 |  |  | 0.1 | 10 (≈ 31.4 µM) | CCC(C(=O)Oc1ccc(S(C)(=O)=O)cc1)c1ccccc1 (stereo not drawn) [S(O)2 CH3] | 
 |  |  | 9 | 10 (≈ 34.9 µM) | CCC(C(=O)Oc1ccc(SC)cc1)c1ccccc1 (stereo not drawn) [SCH3] | 
 |  |  | 0.6 | 600 (≈ 1980 µM) | CCC(C(=O)Oc1ccc([S+](C)[O-])cc1)c1ccccc1 (stereo not drawn) [S(O)CH3] | 
 |  |  | 0.357 | ≥ 2000 | CCC(C(=O)Oc1ccc([S+]([O-])CC(C)(C)C(=O)O)cc1)c1ccccc1 (stereo not drawn) [S(O)CH2 C(CH3)2 CO2 H] | 
